This is an account of results in patent US20260265233A1, “BENZOTHIOPHENE DERIVATIVES AS RXFP1 AGONISTS” (BRISTOL-MYERS SQUIBB COMPANY, priority 2021, published 2026).

The target in this assay is T1, human RXFP1 (Homo sapiens, UniProt Q9HBX9).
T1 construct: expressed in transfected cells
T1 sequence (Q9HBX9 1-757): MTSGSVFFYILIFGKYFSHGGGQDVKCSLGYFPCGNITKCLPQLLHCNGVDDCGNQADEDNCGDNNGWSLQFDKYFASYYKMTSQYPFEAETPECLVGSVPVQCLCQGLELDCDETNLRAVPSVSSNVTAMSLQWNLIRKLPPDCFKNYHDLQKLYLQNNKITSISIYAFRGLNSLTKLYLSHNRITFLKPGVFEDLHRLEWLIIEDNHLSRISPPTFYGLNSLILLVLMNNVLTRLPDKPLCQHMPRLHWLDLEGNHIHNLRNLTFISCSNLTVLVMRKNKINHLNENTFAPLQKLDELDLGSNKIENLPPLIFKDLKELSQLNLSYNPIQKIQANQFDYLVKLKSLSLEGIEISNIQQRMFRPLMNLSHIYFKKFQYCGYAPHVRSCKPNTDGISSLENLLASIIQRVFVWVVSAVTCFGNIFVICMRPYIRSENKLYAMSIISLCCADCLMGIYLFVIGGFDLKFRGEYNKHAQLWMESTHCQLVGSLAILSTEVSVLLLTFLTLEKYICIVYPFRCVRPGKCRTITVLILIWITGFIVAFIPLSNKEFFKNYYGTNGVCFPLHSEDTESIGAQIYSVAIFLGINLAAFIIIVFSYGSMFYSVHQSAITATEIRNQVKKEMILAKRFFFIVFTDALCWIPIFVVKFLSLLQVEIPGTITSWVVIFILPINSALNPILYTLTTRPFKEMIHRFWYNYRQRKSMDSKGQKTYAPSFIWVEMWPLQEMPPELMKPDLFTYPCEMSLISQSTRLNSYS
In words: hRXFP1 HEK293 cAMP assay (HTRF). The class given is cell-based. The following applies: HEK293 cells stably expressing human RXFP1; 30 min at rt; intracellular cAMP by HTRF. An outline of the steps:
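Agonism is measured as cAMP by HTRF, quantified from a standard curve via the 665/590 nm ratio and fitted with a four-parameter logistic equation. Compounds (0.010 nM to 50 μM final, 2% DMSO) were applied for 30 min at rt to human RXFP1-expressing HEK293 cells in assay buffer containing 0.5 mM IBMX.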

Molecule `COc1ccc(N2CCC(NCCO)C2)cc1C(=O)Nc1c(C(=O)Nc2ccc(F)c(C(F)(F)F)c2)sc2cc(C(F)(F)F)ccc12` (single isomer, unassigned) [Example 9, N-(4-fluoro-3-(trifluoromethyl)phenyl)-3-(5-(3-((2-hydroxyethyl)amino)pyrrolidin-1-yl)-2-methoxybenzamido)-6-(trifluoromethyl) benzo[b]thiophene-2-carboxamide] displayed an EC50 of 2.38 µM.

With `COc1ccc(C2CC3(C2)CN(S(C)(=O)=O)C3)cc1C(=O)Nc1c(C(=O)Nc2ccc(F)c(C(F)(F)F)c2)sc2cc(C(F)(F)F)ccc12` [Example 204, N-(4-fluoro-3-(trifluoromethyl)phenyl)-3-(2-methoxy-5-(2-(methylsulfonyl)-2-azaspiro[3.3]heptan-6-yl)benzamido)-6-(trifluoromethyl) benzo[b] thiophene-2-carboxamide], the EC50 was 1.17 µM.

`COc1ccc(-c2ccc(N3CCOCC3)nc2)cc1C(=O)Nc1c(C(=O)Nc2ccc(F)c(C(F)(F)F)c2)sc2cc(C(F)(F)F)ccc12` [Example 127, N-(4-fluoro-3-(trifluoromethyl)phenyl)-3-(2-methoxy-5-(6-morpholino-pyridin-3-yl)benzamido)-6-(trifluoromethyl) benzo[b] thiophene-2-carboxamide] returned an EC50 of 0.254 µM.

In turn, `COc1ccc(C2CCN(C(=O)C(F)F)C2)cc1C(=O)Nc1c(C(=O)Nc2ccc(F)c(C(F)(F)F)c2)sc2cc(C(F)(F)F)ccc12` (stereo not shown) [Example 145, 3-(5-(1-(2,2-difluoroacetyl)pyrrolidin-3-yl)-2-methoxy-benzamido)-N-(4-fluoro-3-(trifluoromethyl)phenyl)-6-(trifluoromethyl) benzo[b] thiophene-2-carboxamide] had an EC50 of 1.65 µM.

The molecule `COc1ccc(CNC(C)(C)CO)cc1C(=O)Nc1c(C(=O)Nc2ccc(F)c(C(F)(F)F)c2)sc2cc(C(F)(F)F)ccc12` [Example 235, N-(4-fluoro-3-(trifluoromethyl)phenyl)-3-(5-(((1-hydroxy-2-methylpropan-2-yl)amino)methyl)-2-methoxy-benzamido)-6-(trifluoromethyl) benzo[b] thiophene-2-carboxamide] had an EC50 of 1.5 µM.

`COc1ccc(C2CCCN(CC(O)CO)C2)cc1C(=O)Nc1c(C(=O)Nc2ccc(F)c(C(F)(F)F)c2)sc2cc(C(F)(F)F)ccc12` (stereo not shown) [Example 102, 3-(5-(1-(2,3-dihydroxypropyl)piperidin-3-yl)-2-methoxy-benzamido)-N-(4-fluoro-3-(trifluoromethyl)phenyl)-6-(trifluoromethyl) benzo[b] thiophene-2-carboxamide] registered an EC50 of 2.23 µM.

Molecule `COc1ccc(C(=O)N2CCC(O)CC2)cc1C(=O)Nc1c(C(=O)Nc2ccc(F)c(C(F)(F)F)c2)sc2cc(Cl)ncc12` [Example 241, 6-chloro-N-(4-fluoro-3-(trifluoromethyl)phenyl)-3-(5-(4-hydroxy-piperidine-1-carbonyl)-2-methoxy-benzamido) thieno[3,2-c]pyridine-2-carboxamide] returned an EC50 of 3.9 µM.

For the molecule `COc1ccc(C2=NOC(C(C)(C)O)C2)cc1C(=O)Nc1c(C(=O)Nc2ccc(F)c(C(F)(F)F)c2)sc2cc(C(F)(F)F)ccc12` (single isomer, unassigned) [Example 257, N-[4-fluoro-3-(trifluoromethyl)phenyl]-3-{5-[5-(2-hydroxypropan-2-yl)-4,5-dihydro-1,2-oxazol-3-yl]-2-methoxy-benzamido}-6-(trifluoromethyl)-1-benzothiophene-2-carboxamide], the EC50 worked out at 0.166 µM.

Molecule `COc1ccc(C2CCC(O)CC2)cc1C(=O)Nc1c(C(=O)Nc2ccc(F)c(C(F)(F)F)c2)sc2cc(C(F)(F)F)ccc12` (single isomer, unassigned) [Example 76, N-(4-fluoro-3-(trifluoromethyl)phenyl)-3-(5-(4-hydroxycyclo-hexyl)-2-methoxy-benzamido)-6-(trifluoromethyl) benzo[b] thiophene-2-carboxamide] gave an EC50 of 0.498 µM.

The molecule `COC(=O)C(=O)N1CCCC(c2ccc(OC)c(C(=O)Nc3c(C(=O)Nc4ccc(F)c(C(F)(F)F)c4)sc4cc(C(F)(F)F)ccc34)c2)C1` (stereo not shown) [Example 94, methyl 2-(3-(3-((2-((4-fluoro-3-(trifluoromethyl)phenyl)carbamoyl)-6-(trifluoromethyl)benzo[b]thiophen-3-yl)carbamoyl)-4-methoxyphenyl)piperidin-1-yl)-2-oxoacetate] came in with an EC50 of 0.245 µM.

Turning to `COc1cc(C)c(C(=O)NCC2(S(C)(=O)=O)CC2)cc1C(=O)Nc1c(C(=O)Nc2ccc(F)c(C(F)(F)F)c2)sc2cc(C(F)(F)F)ccc12` [Example 187, N1-(2-((4-fluoro-3-(trifluoromethyl)phenyl)carbamoyl)-6-(trifluoromethyl)benzo[b]thiophen-3-yl)-6-methoxy-4-methyl-N3-((1-(methylsulfonyl)cyclopropyl)methyl) isophthalamide], the response was half-maximal at 0.328 µM (EC50).

As to `COc1ccc(C2=NOC3CC(NC(=O)CO)CC23)cc1C(=O)Nc1c(C(=O)Nc2ccc(F)c(C(F)(F)F)c2)sc2cc(C(F)(F)F)ccc12` (single isomer, unassigned) [Example 264, N-[4-fluoro-3-(trifluoromethyl)phenyl]-3-{5-[5-(2-hydroxyacetamido)-3aH,4H,5H,6H, 6aH-cyclopenta[d] [1,2]oxazol-3-yl]-2-methoxy-benzamido}-6-(trifluoromethyl)-1-benzothiophene-2-carboxamide], the EC50 stood at 3.14 µM.

Consider `COc1ccc(N2CCC(NCCS(C)(=O)=O)C2)cc1C(=O)Nc1c(C(=O)Nc2ccc(F)c(C(F)(F)F)c2)sc2cc(C(F)(F)F)ccc12` (stereo not shown) [Example 68, N-(4-fluoro-3-(trifluoromethyl)phenyl)-3-(2-methoxy-5-(3-((2-(methylsulfonyl)ethyl)amino)pyrrolidin-1-yl)benzamido)-6-(trifluoromethyl) benzo[b] thiophene-2-carboxamide], for which the EC50 came to 1.08 µM.

In turn, `COc1ccc(C2CCCN(C(=O)C(C)(C)O)C2)cc1C(=O)Nc1c(C(=O)Nc2ccc(F)c(C(F)(F)F)c2)sc2cc(C(F)(F)F)ccc12` (stereo not shown) [Example 92, N-[4-fluoro-3-(trifluoromethyl)phenyl]-3-{5-[1-(2-hydroxy-2-methylpropanoyl)piperidin-3-yl]-2-methoxy-benzamido}-6-(trifluoromethyl)-1-benzothiophene-2-carboxamide] gave an EC50 of 0.165 µM.

The molecule `COc1ccc(C(=O)N2CC(O)C2)cc1C(=O)Nc1c(C(=O)Nc2ccc(F)c(C(F)(F)F)c2)sc2cc(C(F)(F)F)ccc12` [Example 191, N-(4-fluoro-3-(trifluoromethyl)phenyl)-3-(5-(3-hydroxyazetidine-1-carbonyl)-2-methoxy-benzamido)-6-(trifluoromethyl) benzo[b] thiophene-2-carboxamide] displayed a half-maximal effective concentration (EC50) of 0.346 µM.

For `COc1ccc(C(=O)N2CCC[C@@H](O)C2)cc1C(=O)Nc1c(C(=O)Nc2ccc(F)c(C(F)(F)F)c2)sc2cc(C(F)(F)F)ccc12` [Example 219, (R)-N-(4-fluoro-3-(trifluoromethyl)phenyl)-3-(5-(3-hydroxy-piperidine-1-carbonyl)-2-methoxy-benzamido)-6-(trifluoromethyl) benzo[b] thiophene-2-carboxamide], the response was half-maximal at 1.14 µM (EC50).
